Data reported in patent US12077503B2, “Substituted cyclic amides and their use as herbicides” (FMC CORPORATION, priority 2015, dated 2024).
Like-named read-outs stand apart in the source and are kept apart here.

How the values were obtained:
[1] = system: barnyardgrass (Echinochloa crus-galli); test: Test A postemergence; type: in vivo; details: Echinochloa crus-galli, post-emergence, 240 h; for pest or weed control at 125 g/ha: 125 g ai/ha; for pest or weed control at 500 g/ha: 500 g ai/ha; for pest or weed control at 31 g/ha: 31 g ai/ha, visual injury after approx. 10 d, 0 no effect, 100 complete control
Summary of the method: (§1)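 Seeded soil received test chemicals as a preemergence directed spray, and seedlings at one to two leaves, 2–10 cm tall, received them postemergence, in a non-phytotoxic, surfactant-containing solvent mixture. Pots were held in a greenhouse for approximately 10 d, then rated for injury from 0, no effect, to 100, complete control.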

[2] = system: blackgrass (Alopecurus myosuroides); test: Test A postemergence; type: in vivo; details: Alopecurus myosuroides, post-emergence, 240 h; for pest or weed control at 125 g/ha: 125 g ai/ha; for pest or weed control at 500 g/ha: 500 g ai/ha; for pest or weed control at 31 g/ha: 31 g ai/ha, visual injury after approx. 10 d, 0 no effect, 100 complete control
Summary of the method: as §1

[3] = system: corn (Zea mays); test: Test A postemergence; type: in vivo; details: Zea mays, post-emergence, 240 h; for Corn plant response rating (crop injury, 0 = no effect, 100 = complete kill) at 125 g/ha / plant injury at 125 g/ha: 125 g ai/ha; for Corn plant response rating (crop injury, 0 = no effect, 100 = complete kill) at 125 g/ha: visual injury after approximately 10 d; for plant injury at 125 g/ha: read-out: Corn plant response rating (0 to 100 scale); for Corn plant response rating (crop injury, 0 = no effect, 100 = complete kill) at 500 g/ha: visual injury, approx. 10 d; for Corn plant response rating (crop injury, 0 = no effect, 100 = complete kill) at 31 g/ha: 31 g ai/ha, visual injury after approx. 10 d, 100 complete control
Summary of the method: as §1

[4] = system: ragweed (common ragweed, Ambrosia elatior); test: Test A postemergence; type: in vivo; details: Ambrosia artemisiifolia, post-emergence, 240 h; for pest or weed control at 125 g/ha: 125 g ai/ha; for pest or weed control at 500 g/ha: 500 g ai/ha; for pest or weed control at 31 g/ha: 31 g ai/ha, visual injury after approx. 10 d, 0 no effect, 100 complete control
Summary of the method: as §1

[5] = system: ryegrass, Italian (Italian ryegrass, Lolium multiflorum); test: Test A postemergence; type: in vivo; details: Lolium multiflorum, post-emergence, 240 h; for pest or weed control at 125 g/ha: 125 g ai/ha; for pest or weed control at 500 g/ha: 500 g ai/ha; for pest or weed control at 31 g/ha: 31 g ai/ha, visual injury after approx. 10 d, 0 no effect, 100 complete control
Summary of the method: as §1

[6] = postemergence, visual injury after approximately 10 d, 0 to 100 scale (0 no effect, 100 complete control), read-out: Plant response rating, Barnyardgrass
[7] = postemergence, visual injury after approximately 10 d, 0 to 100 scale (0 no effect, 100 complete control), read-out: Plant response rating, Blackgrass
[8] = postemergence, 0 to 100 scale (0 no effect, 100 complete control)
[9] = postemergence, visual injury after approximately 10 d, 0 to 100 scale (0 no effect, 100 complete control), read-out: Plant response rating, Ragweed
[10] = postemergence, visual injury after approximately 10 d, 0 to 100 scale (0 no effect, 100 complete control), read-out: Plant response rating, Ryegrass, Italian
[11] = Postemergence, visual rating about 10 d after treatment, read-out: Barnyardgrass plant response rating (0 to 100 scale, 0 no effect, 100 complete control)
[12] = Postemergence, visual injury, 0 to 100 scale (0 no effect, 100 complete control), approx. 10 d, read-out: Plant response rating, Barnyardgrass
[13] = Postemergence, visual rating about 10 d after treatment, read-out: Blackgrass plant response rating (0 to 100 scale)
[14] = Postemergence, visual injury, 0 to 100 scale (0 no effect, 100 complete control), approx. 10 d, read-out: Plant response rating, Blackgrass
[15] = Postemergence, visual rating about 10 d after treatment
[16] = Postemergence, 500 g ai/ha, 0 to 100 scale (0 no effect, 100 complete control)
[17] = Postemergence, visual rating about 10 d after treatment, read-out: Ragweed plant response rating (0 to 100 scale)
[18] = Postemergence, visual injury, 0 to 100 scale (0 no effect, 100 complete control), approx. 10 d, read-out: Plant response rating, Ragweed
[19] = Postemergence, visual rating about 10 d after treatment, read-out: Ryegrass, Italian plant response rating (0 to 100 scale)
[20] = Postemergence, visual injury, 0 to 100 scale (0 no effect, 100 complete control), approx. 10 d, read-out: Plant response rating, Ryegrass, Italian
[21] = Postemergence, 0 to 100 scale, read-out: Plant response rating, Barnyardgrass
[22] = Postemergence, 0 to 100 scale, read-out: Plant response rating, Blackgrass
[23] = Postemergence, 0 to 100 scale, read-out: Plant response rating, Ragweed
[24] = Postemergence, 0 to 100 scale, read-out: Plant response rating, Ryegrass, Italian

## O=C1NC[C@H](c2cnc(C(F)(F)F)nc2)[C@H]1C(=O)Nc1ccccc1F [Compound 741]
[1]; [6]
  pest or weed control at 125 g/ha: 0%
[2]; [7]
  pest or weed control at 125 g/ha: 0%
[3]; [8]
  Corn plant response rating (crop injury, 0 = no effect, 100 = complete kill) at 125 g/ha: 0%
[4]; [9]
  pest or weed control at 125 g/ha: 0%
[5]; [10]
  pest or weed control at 125 g/ha: 0%
other
  melting point: 227 to 231 °C

## Cc1cc([C@H]2CN(C)C(=O)[C@@H]2C(=O)Nc2cccc(F)c2F)on1 [Compound 1196]
[1]; postemergence, visual injury vs untreated controls after approx. 10 d, 0 = no effect, 100 = complete control, read-out: Barnyardgrass plant response rating (0 to 100 scale)
  pest or weed control at 125 g/ha: 70%
[1]; postemergence, 0 to 100 scale, 0 is no effect, 100 is complete control, read-out: Barnyardgrass plant response rating
  pest or weed control at 500 g/ha: 90%
[2]; postemergence, visual injury vs untreated controls after approx. 10 d, 0 = no effect, 100 = complete control, read-out: Blackgrass plant response rating (0 to 100 scale)
  pest or weed control at 125 g/ha: 0%
[2]; postemergence, 0 to 100 scale, 0 is no effect, 100 is complete control, read-out: Blackgrass plant response rating
  pest or weed control at 500 g/ha: 0%
[3]; postemergence, visual injury vs untreated controls after approx. 10 d, 0 = no effect, 100 = complete control
  plant injury at 125 g/ha: 0%
[3]; 500 g ai/ha, postemergence, 0 to 100 scale, 0 is no effect, 100 is complete control, read-out: Corn plant response rating
  plant injury at 500 g/ha: 0%
[4]; postemergence, visual injury vs untreated controls after approx. 10 d, 0 = no effect, 100 = complete control, read-out: Ragweed plant response rating (0 to 100 scale)
  pest or weed control at 125 g/ha: 0%
[4]; postemergence, 0 to 100 scale, 0 is no effect, 100 is complete control, read-out: Ragweed plant response rating
  pest or weed control at 500 g/ha: 0%
[5]; postemergence, visual injury vs untreated controls after approx. 10 d, 0 = no effect, 100 = complete control, read-out: Ryegrass, Italian plant response rating (0 to 100 scale)
  pest or weed control at 125 g/ha: 0%
[5]; postemergence, 0 to 100 scale, 0 is no effect, 100 is complete control, read-out: Ryegrass, Italian plant response rating
  pest or weed control at 500 g/ha: 0%
other
  melting point: 144 to 148 °C

## CN1CC(c2cccc(OC/C=C/Cl)c2)C(C(=O)Nc2cccc(F)c2F)C1=O (stereo not shown) [Compound 772]
[1]; [6]
  pest or weed control at 125 g/ha: 0%
[2]; [7]
  pest or weed control at 125 g/ha: 0%
[3]; [8]
  Corn plant response rating (crop injury, 0 = no effect, 100 = complete kill) at 125 g/ha: 0%
[4]; [9]
  pest or weed control at 125 g/ha: 0%
[5]; [10]
  pest or weed control at 125 g/ha: 0%
other
  melting point: 146 to 150 °C

## O=C1NC[C@H](c2nccc(C(F)(F)F)n2)[C@H]1C(=O)Nc1ccccc1F [Compound 1304]
[1]; [11]
  pest or weed control at 125 g/ha: 0%
[1]; [12]
  pest or weed control at 500 g/ha: 0%
[2]; [13]
  pest or weed control at 125 g/ha: 0%
[2]; [14]
  pest or weed control at 500 g/ha: 0%
[3]; [15]
  plant injury at 125 g/ha: 0%
[3]; [16]
  Corn plant response rating (crop injury, 0 = no effect, 100 = complete kill) at 500 g/ha: 0%
[4]; [17]
  pest or weed control at 125 g/ha: 0%
[4]; [18]
  pest or weed control at 500 g/ha: 0%
[5]; [19]
  pest or weed control at 125 g/ha: 0%
[5]; [20]
  pest or weed control at 500 g/ha: 0%
other
  melting point: 166 to 170 °C

## O=C1NC[C@H](c2cncs2)[C@H]1C(=O)Nc1cccc(F)c1F [Compound 1336]
[1]; [11]
  pest or weed control at 125 g/ha: 0%
[1]; [12]
  pest or weed control at 500 g/ha: 0%
[2]; [13]
  pest or weed control at 125 g/ha: 0%
[2]; [14]
  pest or weed control at 500 g/ha: 0%
[3]; [15]
  plant injury at 125 g/ha: 0%
[3]; [16]
  Corn plant response rating (crop injury, 0 = no effect, 100 = complete kill) at 500 g/ha: 0%
[4]; [17]
  pest or weed control at 125 g/ha: 0%
[4]; [18]
  pest or weed control at 500 g/ha: 0%
[5]; [19]
  pest or weed control at 125 g/ha: 0%
[5]; [20]
  pest or weed control at 500 g/ha: 0%
other
  melting point: 111 to 142 °C

## C/C=C/C1CNC(=O)C1C(=O)Nc1ccccc1F (stereo not shown) [Compound 792]
[1]; [6]
  pest or weed control at 125 g/ha: 0%
[1]; [21]
  pest or weed control at 31 g/ha: 0%
[2]; [7]
  pest or weed control at 125 g/ha: 0%
[2]; [22]
  pest or weed control at 31 g/ha: 0%
[3]; [8]
  Corn plant response rating (crop injury, 0 = no effect, 100 = complete kill) at 125 g/ha: 0%
[3]; Postemergence, 0 to 100 scale
  Corn plant response rating (crop injury, 0 = no effect, 100 = complete kill) at 31 g/ha: 0%
[4]; [9]
  pest or weed control at 125 g/ha: 0%
[4]; [23]
  pest or weed control at 31 g/ha: 0%
[5]; [10]
  pest or weed control at 125 g/ha: 0%
[5]; [24]
  pest or weed control at 31 g/ha: 0%
other
  melting point: 133 to 137 °C

## O=C1NC[C@H](c2cccc(C(F)(F)F)n2)[C@H]1C(=O)Nc1ccccc1F [Compound 940]
[1]; Postemergence, visual injury after approximately 10 d, 0 to 100 scale where 0 is no effect and 100 is complete control, read-out: Plant response rating, Barnyardgrass
  pest or weed control at 125 g/ha: 10%
[2]; Postemergence, visual injury after approximately 10 d, 0 to 100 scale where 0 is no effect and 100 is complete control, read-out: Plant response rating, Blackgrass
  pest or weed control at 125 g/ha: 0%
[3]; Postemergence, 0 to 100 scale where 0 is no effect and 100 is complete control
  Corn plant response rating (crop injury, 0 = no effect, 100 = complete kill) at 125 g/ha: 0%
[4]; Postemergence, visual injury after approximately 10 d, 0 to 100 scale where 0 is no effect and 100 is complete control, read-out: Plant response rating, Ragweed
  pest or weed control at 125 g/ha: 0%
[5]; Postemergence, visual injury after approximately 10 d, 0 to 100 scale where 0 is no effect and 100 is complete control, read-out: Plant response rating, Ryegrass, Italian
  pest or weed control at 125 g/ha: 0%
other
  melting point: 164 to 167 °C

## O=C1NCC[C@H](c2ccc(Cl)cc2)[C@H]1C(=O)Nc1cccc(F)c1F [Compound 795]
[1]; [6]
  pest or weed control at 125 g/ha: 70%
[1]; [21]
  pest or weed control at 31 g/ha: 20%
[2]; [7]
  pest or weed control at 125 g/ha: 0%
[2]; [22]
  pest or weed control at 31 g/ha: 0%
[3]; [8]
  Corn plant response rating (crop injury, 0 = no effect, 100 = complete kill) at 125 g/ha: 0%
[3]; Postemergence, 0 to 100 scale
  Corn plant response rating (crop injury, 0 = no effect, 100 = complete kill) at 31 g/ha: 0%
[4]; [9]
  pest or weed control at 125 g/ha: 0%
[4]; [23]
  pest or weed control at 31 g/ha: 0%
[5]; [10]
  pest or weed control at 125 g/ha: 0%
[5]; [24]
  pest or weed control at 31 g/ha: 0%
other
  melting point: 86 to 89 °C
